Values quoted from earlier work as cited in patent US11737988B2, “Anti-hypertensive and cholesterol-lowering fixed-dose combination and method of manufacture” (CardioPharma, Inc., priority 2019, dated 2023).

Details: cholesterol-lowering drugs (statins); known to those of skill in the art

SMILES	bioavailability [%]
O=C(O)C[C@H](O)C[C@H](O)/C=C/c1c(C2CC2)nc2ccccc2c1-c1ccc(F)cc1 [pitvastatin]	60
COCc1c(C(C)C)nc(C(C)C)c(/C=C/[C@@H](O)C[C@@H](O)CC(=O)O)c1-c1ccc(F)cc1 [cerivastatin]	60
